The source of these data is ChEMBL document CHEMBL3853354, “Structure-activity relationships of proline modifications around the tetracyclic-indole class of NS5A inhibitors” (Bioorg Med Chem Lett, 2016).

Experiment [1] concerns T1, Nonstructural protein 5A (Hepatitis C virus), Q5L478 [Y93H].
T1 sequence (whole entry): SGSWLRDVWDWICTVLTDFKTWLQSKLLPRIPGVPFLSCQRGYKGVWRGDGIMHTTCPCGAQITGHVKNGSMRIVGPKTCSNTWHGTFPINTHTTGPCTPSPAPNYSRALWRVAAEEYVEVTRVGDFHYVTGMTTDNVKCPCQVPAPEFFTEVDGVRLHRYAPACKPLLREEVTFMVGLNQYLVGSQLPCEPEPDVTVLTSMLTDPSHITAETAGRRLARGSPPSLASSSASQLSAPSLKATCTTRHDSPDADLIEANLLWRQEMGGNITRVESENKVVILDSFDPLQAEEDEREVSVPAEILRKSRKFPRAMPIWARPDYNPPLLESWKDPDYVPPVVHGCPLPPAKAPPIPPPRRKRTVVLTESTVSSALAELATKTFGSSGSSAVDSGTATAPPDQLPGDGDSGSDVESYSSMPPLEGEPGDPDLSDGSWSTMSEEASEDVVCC
Briefly: Inhibition of NS5A Y93H mutant in HCV genotype 1a assessed as reduction in replicon RNA level after 3 days by cell based RT-PCR method. As to conditions: Hepatitis C virus subtype 1a. In general terms: Replicon systems follow genome replication, usually without infectious particles.

The subject of experiment [2] is Hepatitis C virus subtype 2b. Briefly: Inhibition of NS5A in HCV genotype 2b assessed as reduction in replicon RNA level after 3 days by cell based RT-PCR method.
In experiment [3] the test system is Hepatitis C virus subtype 1a. Briefly: Inhibition of NS5A in HCV genotype 1a assessed as reduction in replicon RNA level after 3 days by cell based RT-PCR method.
Experiment [4] has as its system Nonstructural protein 5A (Hepatitis C virus), Q5L478 [UNDEFINED MUTATION]. Briefly: Inhibition of NS5A L31V mutant in HCV genotype 1a assessed as reduction in replicon RNA level after 3 days by cell based RT-PCR method. Particulars: Hepatitis C virus subtype 1a.
Experiment [5] relates to Hepatitis C virus subtype 3a. Briefly: Inhibition of NS5A in HCV genotype 3a assessed as reduction in replicon RNA level after 3 days by cell based RT-PCR method.

Bounds are passed on as bounds.

The EC90 is the concentration needed for an effect of 90%. For `COC(=O)N[C@H](C(=O)N1C[C@H](F)C[C@H]1c1ncc(-c2cc(F)c3c(c2)OC(c2cccc(OC)c2)n2c-3cc3cc(-c4cnc([C@@H]5C[C@H]6C[C@H]6N5C(=O)[C@@H](NC(=O)OC)C(C)C)[nH]4)ccc32)[nH]1)C(C)C` (stereo partly specified), the EC90 worked out at 5.15 nM in experiment [1], 52.2 nM in experiment [2], 0.032 nM in experiment [3] and 0.92 nM in experiment [4].

As to `COC(=O)N[C@H](C(=O)N1C(C)CC[C@H]1c1ncc(-c2ccc3c(c2)OC(c2ccccc2)n2c-3cc3cc(-c4cnc([C@@H]5CCC(C)N5C(=O)[C@@H](NC(=O)OC)C(C)C)[nH]4)ccc32)[nH]1)C(C)C` (single isomer, unassigned; diastereomer A), the EC90 in experiment [1] is 64 nM; in experiment [2], 75 nM; in experiment [5] it was 6.14 nM; in experiment [4], 1.72 nM.

Regarding `COC(=O)N[C@H](C(=O)N1CC2(CC2)C[C@H]1c1ncc(-c2cc(F)c3c(c2)OC(c2cccc(OC)c2)n2c-3cc3cc(-c4cnc([C@@H]5CC6(CC6)CN5C(=O)[C@@H](NC(=O)OC)C(C)C)[nH]4)ccc32)[nH]1)C(C)C` (stereo partly specified), the concentration for an effect of 90% (EC90) in experiment [1] stood at 23.7 nM; in experiment [2], 38.8 nM; in experiment [5], 0.16 nM; in experiment [3], 0.011 nM; in experiment [4], 0.05 nM.

In the case of `COC(=O)N[C@H](C(=O)N1[C@@H]2CCCC[C@@H]2C[C@H]1c1ncc(-c2cc(F)c3c(c2)OC(c2cccc(OC)c2)n2c-3cc3cc(-c4cnc([C@@H]5C[C@H]6CCCC[C@H]6N5C(=O)[C@@H](NC(=O)OC)C(C)C)[nH]4)ccc32)[nH]1)C(C)C` (stereo partly specified), the EC90 in experiment [1] worked out at 37.6 nM; in experiment [2], 21 nM; in experiment [3] it was 0.18 nM; in experiment [4], 0.51 nM.

With `COC(=O)N[C@H](C(=O)N1C[C@H](OC)C[C@H]1c1ncc(-c2cc(F)c3c(c2)OC(c2cccc(OC)c2)n2c-3cc3cc(-c4cnc([C@@H]5C[C@@H](OC)CN5C(=O)[C@@H](NC(=O)OC)C(C)C)[nH]4)ccc32)[nH]1)C(C)C` (stereo partly specified), the concentration for an effect of 90% (EC90) in experiment [1] worked out at 0.79 nM; in experiment [2] it was 90.7 nM; in experiment [5] it was 5.52 nM; in experiment [3], 0.015 nM; in experiment [4] it was 0.19 nM.

Consider `COC(=O)N[C@H](C(=O)N1C(C)CC[C@H]1c1ncc(-c2ccc3c(c2)OC(c2ccccc2)n2c-3cc3cc(-c4cnc([C@@H]5CCC(C)N5C(=O)[C@@H](NC(=O)OC)C(C)C)[nH]4)ccc32)[nH]1)C(C)C` (single isomer, unassigned; diastereomer B), for which the concentration for an effect of 90% (EC90) amounted to 158 nM in experiment [1], 129 nM in experiment [2], 51.5 nM in experiment [5] and 5.74 nM in experiment [4].

With `COC(=O)N[C@H](C(=O)N1CCC[C@H]1c1ncc(-c2cc(F)c3c(c2)OC(c2cccc(OC)c2)n2c-3cc3cc(-c4cnc([C@@H]5[C@H]6CC[C@H](C6)N5C(=O)[C@@H](NC(=O)OC)C(C)C)[nH]4)ccc32)[nH]1)C(C)C` (stereo partly specified), the EC90 worked out at 26.1 nM in experiment [1]; 51.8 nM in experiment [2]; 0.92 nM in experiment [5]; 0.002 nM in experiment [3]; 0.9 nM in experiment [4].

Take `COC(=O)N[C@H](C(=O)N1CCC[C@H]1c1ncc(-c2cc(F)c3c(c2)OC(c2cccc(OC)c2)n2c-3cc3cc(-c4cnc([C@@H]5C[C@@H](F)CN5C(=O)[C@@H](NC(=O)OC)C(C)C)[nH]4)ccc32)[nH]1)C(C)C` (stereo partly specified): the EC90 was 1.81 nM in experiment [1], 33.6 nM in experiment [2], 0.01 nM in experiment [3] and 0.29 nM in experiment [4].

Regarding `COC(=O)N[C@H](C(=O)N1[C@@H]2CC(F)(F)[C@@H]2C[C@H]1c1ncc(-c2cc(F)c3c(c2)OC(c2cccc(OC)c2)n2c-3cc3cc(-c4cnc([C@@H]5C[C@@H]6[C@@H](CC6(F)F)N5C(=O)[C@@H](NC(=O)OC)C(C)C)[nH]4)ccc32)[nH]1)C(C)C` (stereo partly specified), the EC90 in experiment [1] was 52.6 nM; in experiment [2] it was 58 nM; in experiment [5] it was 0.29 nM; in experiment [3] it was 0.017 nM; in experiment [4], 0.078 nM.

Take `COC(=O)N[C@H](C(=O)N1C[C@H](F)C[C@H]1c1ncc(-c2cc(F)c3c(c2)OC(c2cccc(OC)c2)n2c-3cc3cc(-c4cnc([C@@H]5C[C@@H](F)CN5C(=O)[C@@H](NC(=O)OC)C(C)C)[nH]4)ccc32)[nH]1)C(C)C` (stereo partly specified): the EC90 in experiment [1] was 0.065 nM; in experiment [2] it was 39 nM; in experiment [3], 0.006 nM; in experiment [4] it was 1.59 nM.

For `COC(=O)N[C@H](C(=O)N1C[C@@H](OC)C[C@H]1c1ncc(-c2cc(F)c3c(c2)OC(c2cccc(OC)c2)n2c-3cc3cc(-c4cnc([C@@H]5C[C@H](OC)CN5C(=O)[C@@H](NC(=O)OC)C(C)C)[nH]4)ccc32)[nH]1)C(C)C` (stereo partly specified), the EC90 in experiment [1] stood at 8.87 nM; in experiment [2], 5.74 nM; in experiment [5] it was 0.71 nM; in experiment [3] it was 0.017 nM; in experiment [4] it was 0.04 nM.

With `COC(=O)N[C@H](C(=O)N1[C@@H]2C[C@@H]2C[C@H]1c1ncc(-c2cc(F)c3c(c2)OC(c2cccc(OC)c2)n2c-3cc3cc(-c4cnc([C@@H]5C[C@H]6C[C@H]6N5C(=O)[C@@H](NC(=O)OC)C(C)C)[nH]4)ccc32)[nH]1)C(C)C` (stereo partly specified), the concentration for an effect of 90% (EC90) in experiment [1] worked out at 0.51 nM; in experiment [2], 22.5 nM; in experiment [5], 0.17 nM; in experiment [3], 0.005 nM; in experiment [4], 1.72 nM.

`COC(=O)N[C@H](C(=O)N1CCC[C@H]1c1ncc(-c2cc(F)c3c(c2)OC(c2ccccc2)n2c-3cc3cc(-c4cnc([C@H]5[C@@H]6[C@H](CN5C(=O)[C@@H](NC(=O)OC)C(C)C)C6(C)C)[nH]4)ccc32)[nH]1)C(C)C` (mixture of isomers): the EC90 in experiment [1] is above 100 nM; in experiment [2] it was 337 nM; in experiment [5], above 10 nM; in experiment [3] it was 0.02 nM; in experiment [4] it was 21 nM.

`COC(=O)N[C@H](C(=O)N1CC2(C[C@H]1c1ncc(-c3cc(F)c4c(c3)OC(c3cccc(OC)c3)n3c-4cc4cc(-c5cnc([C@@H]6CC7(CN6C(=O)[C@@H](NC(=O)OC)C(C)C)OCCCO7)[nH]5)ccc43)[nH]1)OCCCO2)C(C)C` (mixture of isomers): the concentration for an effect of 90% (EC90) in experiment [1] amounted to 0.44 nM; in experiment [2], 114 nM; in experiment [5] it was 15 nM; in experiment [3], 0.018 nM; in experiment [4], 0.2 nM.

With `COC(=O)N[C@H](C(=O)N1CCC[C@H]1c1ncc(-c2cc(F)c3c(c2)OC(c2cccc(OC)c2)n2c-3cc3cc(-c4cnc([C@@H]5C[C@H]6C[C@H]6N5C(=O)[C@@H](NC(=O)OC)C(C)C)[nH]4)ccc32)[nH]1)C(C)C` (stereo partly specified), the EC90 in experiment [1] was 1.64 nM; in experiment [2] it was 19.4 nM; in experiment [5], 0.15 nM; in experiment [3], 0.007 nM; in experiment [4], 0.084 nM.

As to `COC(=O)N[C@H](C(=O)N1C[C@H](OC(F)F)C[C@H]1c1ncc(-c2cc(F)c3c(c2)OC(c2cccc(OC)c2)n2c-3cc3cc(-c4cnc([C@@H]5C[C@@H](OC(F)F)CN5C(=O)[C@@H](NC(=O)OC)C(C)C)[nH]4)ccc32)[nH]1)C(C)C` (stereo partly specified), the EC90 in experiment [1] was found to be 5.27 nM; in experiment [2], 55.6 nM; in experiment [5] it was 12.9 nM; in experiment [3], 0.021 nM.

Consider `COC(=O)N[C@H](C(=O)N1C[C@H](F)C[C@H]1c1ncc(-c2cc(F)c3c(c2)OC(c2cccc(OC)c2)n2c-3cc3cc(-c4cnc([C@@H]5C[Si](C)(C)CN5C(=O)[C@@H](NC(=O)OC)C(C)C)[nH]4)ccc32)[nH]1)C(C)C` (stereo partly specified), for which the EC90 in experiment [1] amounted to 91.4 nM; in experiment [2], 391 nM; in experiment [3], 0.3 nM; in experiment [4], 13.6 nM.

As to `COC(=O)N[C@H](C(=O)N1CC[C@H](OC)[C@H]1c1ncc(-c2cc(F)c3c(c2)OC(c2cccc(OC)c2)n2c-3cc3cc(-c4cnc([C@@H]5[C@@H](OC)CCN5C(=O)[C@@H](NC(=O)OC)C(C)C)[nH]4)ccc32)[nH]1)C(C)C` (stereo partly specified), the EC90 in experiment [1] was 3.86 nM; in experiment [2], 322 nM; in experiment [5], 30 nM; in experiment [3], 2.67 nM; in experiment [4], 24.5 nM.

In the case of `COC(=O)N[C@H](C(=O)N1CCC[C@H]1c1ncc(-c2ccc3c(c2)cc2n3C(c3cccc(OC)c3)Oc3cc(-c4cnc([C@@H]5C[C@H]6C[C@H]6N5C(=O)[C@@H](NC(=O)OC)C(C)C)[nH]4)cc(F)c3-2)[nH]1)C(C)C` (stereo partly specified), the EC90 in experiment [1] is 10.9 nM; in experiment [2] it was 49.3 nM; in experiment [3] it was 0.026 nM; in experiment [4], 0.36 nM.

Take `COC(=O)N[C@H](C(=O)N1CCC[C@H]1c1ncc(-c2ccc3c(c2)cc2n3C(c3cccc(OC)c3)Oc3cc(-c4cnc([C@@H]5C[C@@H](F)CN5C(=O)[C@@H](NC(=O)OC)C(C)C)[nH]4)cc(F)c3-2)[nH]1)C(C)C` (stereo partly specified): the EC90 in experiment [1] was 0.55 nM; in experiment [2], 18.8 nM; in experiment [5], 0.13 nM; in experiment [3], below 0.002 nM; in experiment [4] it was 0.34 nM.
